Measurements reported in patent US12070502B2, “Process for reducing subvisible particles in a pharmaceutical formulation” (Regeneron Pharmaceuticals, Inc., priority 2014, dated 2024).

What was measured:
[1] = test system: polysorbate degrading activity; assay: Reduction of polysorbate 20 degradation by lipase inhibitors; format: biochemical, CHO cell; conditions: relative to control without inhibitor
Excerpt: Polysorbate degradation activity was followed during HIC purification of an exemplar antibody produced in CHO cell culture. Partially purified CHO cell extract was applied to HIC (phenyl-sepharose). The flow-through, which contained almost all of the antibody, was collected and analyzed for polysorbate degradation activity. […] The HIC bound fraction was stripped from the HIC media and subsequently subjected to 100 kDa cut-off ultrafiltration/diafiltration. The unfiltered stripped fraction contained 9.9% polysorbate degradation activity, the filter permeate contained 1.3% polysorbate degradation activity and 5% antibody yield, and the filter retentate contained 7.4% polysorbate degradation activity and 95% antibody yield.
Whether the polysorbate degrading activity is a lipase was tested by combining a lipase inhibitor with the polysorbate degrading activity fraction spiked with polysorbate 20. Table 12 presents the data showing a reduction of polysorbate degrading activity due to lipase inhibitor relative to the control (antibody with associated polysorbate degrading activity plus polysorbate 20 without lipase inhibitor).

[2] = Stability of polysorbate 20 / polysorbate 80 esters in 150 mg/mL antibody (mAb1) formulation by mass spectroscopy; conditions: for Percent Ester Degradation: 150 mg/mL antibody (mAb1) formulation; for percent remaining esters, Diester / percent remaining esters, Monoester: 150 mg/mL mAb1, 0.02% detergent, no HIC (process 3)
Experimental: The stability of polysorbate 20 and polysorbate 80 in the 150 mg/mL antibody (mAb1) formulation containing 0.02% non-ionic detergent (polysorbate) prepared without HIC [process 3, see below and Table 8]) were compared, under the hypothesis that degradation of the fatty acid ester promotes protein instability and consequent SVP formation. The relative amounts of remaining esters (mono- and di-esters) were determined by mass spectroscopy.
The rates of degradation of polysorbate 20 and polysorbate 80 formulated with 150 mg/mL antibody (mAb1) (as described above for Table 5) were determined under identical conditions using mass spectroscopy to measure relative amounts of free fatty acids and fatty acid esters. Percent ester degradation was determined using the following formula:
[formula] wherein T0=time zero, T1=time at experimental condition (i.e., 2 months at 45° C.; 6 months at 5° C.), and POE=polyoxyethylene. […]
The time point samples were analyzed using an anion exchange column (Oasis MAX column, 30 μm, 2.1 mm×20 mm; Waters Corporation, Milford, Mass.) followed at t=5 minutes with reverse phase chromatography (ACQUITY UPLC® BEH 130 C4 column, 1.7 μm, 2.1 mm×50 mm; Waters Corporation, Milford, Mass.). The reverse phase output was connected to a mass spectrometer (Thermo Q-Exactive mass spectrometer; Thermo Fisher Scientific, Inc., Wilmington, Del.). The chromatographic conditions are described in Table 11.
The system was equilibrated with 99% mobile phase A (0.1% formic acid in water) at a flow rate of 0.1 mL/minute for 40 minutes prior to first injection. Water was used as a blank injection. The mass spectrometer parameters were as follows: mass range 150-2000 m/z; heater temperature at 250° C.; voltage 3.8 kv; sheath gas 40; auxiliary gas 10; capillary temperature 350° C.; and S-lens 50.

| Compound | Percent Reduction in Polysorbate 20 Degradation ([1]; 0.001 mM lipase inhibitor) [%] | Percent Reduction in Polysorbate 20 Degradation ([1]; 0.01 mM lipase inhibitor) [%] | Percent Reduction in Polysorbate 20 Degradation ([1]; 0.1 mM lipase inhibitor) [%] | Percent Ester Degradation ([2]; 2 months at 45° C.) [%] | percent remaining esters, Diester ([2]; 2 months at 45° C.) [%] | percent remaining esters, Monoester ([2]; 2 months at 45° C.) [%] | Percent Ester Degradation ([2]; 6 months at 5° C.) [%] | percent remaining esters, Diester ([2]; 6 months at 5° C.) [%] | percent remaining esters, Monoester ([2]; 6 months at 5° C.) [%] | Percent Ester Degradation ([2]; Time zero) [%] | percent remaining esters, Diester ([2]; Time zero) [%] | percent remaining esters, Monoester ([2]; Time zero) [%] |
| --- | --- | --- | --- | --- | --- | --- | --- | --- | --- | --- | --- | --- |
| CCCCCCCCCCC[C@@H](C[C@@H]1OC(=O)[C@H]1CCCCCC)OC(=O)[C@H](CC(C)C)NC=O [Orlistat, orlistat] | 0 | 27.8 | 67 |  |  |  |  |  |  |  |  |  |
| CCCCOc1ccccc1B(O)O [2-Butoxyphenyl boronic acid, 2-butoxyphenylboronic acid] | 0 | 28 | 0 |  |  |  |  |  |  |  |  |  |
| O=C(Nc1cccc(-c2ccccc2)c1)OC1CCCCC1 [URB602, [1-1′-biphenyl]-3-tl-carbamicacid cyclohexyl ester] | 0 | 20 | 0 |  |  |  |  |  |  |  |  |  |
| polysorbate 20 [PS20] |  |  |  | 63 | 10 | 30 | 22 | 30 | 60 | 0 | 100 | 100 |
| diethylumbelliferyl phosphate | 48 | 100 | >95 |  |  |  |  |  |  |  |  |  |
